Laboratory results taken from patent publication EP0311322B1, “Pyridine or pyridazine derivatives as cardio-protective agents and for the treatment of ischemic disease, and process for their preparation” (FUJISAWA PHARMACEUTICAL CO., LTD., priority 1987, dated 1989).

Legend:
Male SD rats [1] = experiment: Test 2: left coronary artery occlusion (5 min) and reperfusion (10 min) in anesthetized rats, incidence of VT, VF and mortality; type: in vivo; settings: 10 min before occlusion
Experimental: Male SD rats weighing 270-340 g were anesthetized with sodium pentobarbital. The chest was opened, and then a thread was placed around the left coronary artery near the origin. Both ends of the thread were passed through a small plastic tube. After standing for 5 minutes, test compound was administered intravenously. After 10 minutes, the left coronary artery was occluded for 5 minutes by pulling the thread and pressing the plastic tube to the artery and then reperfusion was achieved by releasing the occlusion for 10 minutes. Electrocardiograms were recorded and analyzed for checking inhibitory rate of incidence of ventricular tachycardia (VT) and ventricular fibrillation (VF) in comparison with control group, and inhibitory rate of mortality as compared with control group was also calculated. 11-18 rats were used for each test group.

Male SD rats [2] = experiment: Test 3: myocardial infarction induced by DL-isoproterenol hydrochloride in rats, mortality and myocardial ATP content; type: in vivo; settings: dose 1.0 mg/kg intraperitoneally, DL-isoproterenol hydrochloride 120 mg/kg subcutaneously
Experimental: Ten male SD rats weighing 140-170 g were used for each group. Test compound was administered intraperitoneally, and then myocardial infarction was induced by administering DL-isoproterenol hydrochloride (120 mg/kg) subcutaneously. After 24 hours, mortality was examined. Survival rats were anesthetized and their hearts were taken out and frozen immediately for the measurement of myocardial ATP content.

[3] = test system: heart isolated from male guinea-pig; experiment: Test 1: isolated guinea-pig heart perfused in the Langendorff mode, global ischemia (35 min) and reperfusion (40 min); settings: for % change from control Cardiac depression (pre-ischemia) LVSP x HR: 15 min before ischemia; for % change from control recovery of ATP content (% increase): after 35 min ischemia and 40 min reperfusion
Experimental: The heart was isolated from male guinea-pig weighing 550-650 g and was perfused in the Langendorff mode at 37°C at a constant perfusion pressure of 80 cm H₂O. The perfusion medium was Krebs-Henseleit bicarbonate solution containing 11 mM glucose. The solution was equilibrated with 95% O₂ and 5% CO₂ gas mixture at pH 7.4. A latex balloon was placed in the left ventricular cavity and then left ventricular systolic (LVSP) and diastolic (LVDP) pressure were measured. Heart rate (HR) was triggered by the pulse pressure. Coronary flow was monitored with electromagnetic flow probe placed on the aorta.
The heart was perfused for 45 min. with the perfusion medium and then for 15 min. with the perfusion medium containing the test compound. The heart was then subjected to the global ischemia by stopping the perfusion. After 35 min. of ischemia, the heart was reperfused by the perfusion medium containing no test compound. At the end of 40 min. reperfusion, the cardiac function was monitored. The heart was immidiately frozen for the estimation of ATP content.

male ddY mice = experiment: Test 4: foot edema after occlusion of the right leg with a rubber band and release in mice; type: in vivo; settings: 20 min occlusion, 20 min after cutting the band
Experimental: Five male ddY mice weighing 27-32 g were used for each group. After test compound was administered intravenously, the right leg was occluded by binding 10 times a rubber band (diameter : 42 mm) round it. After 20 minutes later, the rubber band was cut and thickness of foot pad was measured by a dial gage immediately and 20 minutes after cutting the band. The difference of these two values was regarded as edema.

[4] = concentration 1 x 10⁻⁵ g/ml in perfusion medium

Row | Compound | % change from control coronary flow ([3]; concentration 1 x 10⁻⁵ g/ml) | % change from control Cardiac depression (pre-ischemia) LVSP x HR [3, 4] | % change from control recovery of ATP content (% increase) ([3]; concentration 1 x 10⁻⁵ g/ml) | Inhibition (%) of foot edema (male ddY mice; dose 1.0 mg/kg intravenously) | also measured
1 | Cc1nc(-c2ccccc2)cc(-c2cccc([N+](=O)[O-])c2)c1C(=O)NCCN1CCOCC1 [(a), 3-(2-Morpholinoethylcarbamoyl)-2-methyl-4-(3-nitrophenyl)-6-phenylpyridine] | 32.0% | -1.7% | 89.5% | 30% | Inhibition (%) of incidence as compared with control group Mortality (Male SD rats [1]; dose 1.0 mg/kg intravenously): 13.5%; Inhibition (%) of incidence as compared with control group VF (Male SD rats [1]; dose 1.0 mg/kg intravenously): 28.0%; Inhibition (%) of incidence as compared with control group VT (Male SD rats [1]; dose 1.0 mg/kg intravenously): 0%; Inhibition (%) of incidence as compared with control group Mortality (Male SD rats [1]; dose 3.2 mg/kg intravenously): 52.5%; Inhibition (%) of incidence as compared with control group VF (Male SD rats [1]; dose 3.2 mg/kg intravenously): 60.4%; Inhibition (%) of incidence as compared with control group VT (Male SD rats [1]; dose 3.2 mg/kg intravenously): 0%; Inhibition (%) of incidence as compared with control group Mortality (Male SD rats [1]; dose 10 mg/kg intravenously): 78.9%; Inhibition (%) of incidence as compared with control group VF (Male SD rats [1]; dose 10 mg/kg intravenously): 82.4%; Inhibition (%) of incidence as compared with control group VT (Male SD rats [1]; dose 10 mg/kg intravenously): 5.6%; Inhibition (%) of mortality (Male SD rats [2]; after 24 hours, % change as compared with mortality rate in control group): 75%; Recovery (%) of ATP content (Male SD rats [2]; myocardial ATP of surviving rats after 24 hours): 67%; % change from control coronary flow ([3]; concentration 1 x 10⁻⁶ g/ml): -1.6%; % change from control Cardiac depression (pre-ischemia) LVSP x HR ([3]; concentration 1 x 10⁻⁶ g/ml in perfusion medium): 4.1%; % change from control recovery of ATP content (% increase) ([3]; concentration 1 x 10⁻⁶ g/ml): 96.3%; Inhibition (%) of foot edema (male ddY mice; dose 0.1 mg/kg intravenously): 12%; Inhibition (%) of foot edema (male ddY mice; dose 10 mg/kg intravenously): 42%
2 | CN1CCN(Cc2nnc(-c3ccccc3)cc2-c2cccc([N+](=O)[O-])c2)CC1 [(b), 3-(4-Methylpiperazin-1-ylmethyl)-4-(3-nitrophenyl)-6-phenylpyridazine] | -30.6% | -95.8% | 100.4% |  | 
3 | Cc1cc(-c2ccccc2)nc(-c2cccc([N+](=O)[O-])c2)c1C(=O)NCCN1CCOCC1 [(c), 4-Methyl-3-(2-morpholinoethylcarbamoyl)-2-(3-nitrophenyl)-6-phenylpyridine] | 31.9% | -38.9% | 71.3% |  | 
4 | Cc1nc(-c2ccccc2)cc(-c2cccc([N+](=O)[O-])c2)c1C(=O)N1CCN(C)CC1 [(d), 2-Methyl-3-(4-methylpiperazin-1-ylcarbonyl)-4-(3-nitrophenyl)-6-phenylpyridine] | 5.0% | -29.7% | 123.6% | 41.5% | 
5 | Cc1nc(-c2ccccc2)cc(-c2cccc([N+](=O)[O-])c2)c1C(=O)NCCN(C)C [(e), 3-(2-Dimethylaminoethylcarbamoyl)-2-methyl-4-(3-nitrophenyl)-6-phenylpyridine] | -10.2% | -90.6% | 76.3% |  | 
6 | Cc1nc(-c2ccccc2)cc(-c2cccc([N+](=O)[O-])c2)c1C(=O)NCCN1CCSCC1.O=C(O)/C=C/C(=O)O [(f), 2-Methyl-4-(3-nitrophenyl)-6-phenyl-3-[2-(4-thiomorpholinyl)ethylcarbamoyl]pyridine fumarate] | 22.5% | -45.2% | 64.9% | 22% | 
7 | Cc1nc(-c2ccccc2)cc(-c2cccc([N+](=O)[O-])c2)c1NC(=O)NCCN(C)C [(g), 3-[3-(2-Dimethylaminoethyl)ureido]-2-methyl-4-(3-nitrophenyl)-6-phenylpyridine] | -42.7% | -85.7% | 78.6% |  | 
